Source: the supplement of paper PMC10307832

Legend:
Test in all cases: relative viability (nuclei count vs DMSO), 5 days (fraction); higher = more cells survive
BEN = test system: BEN
Summary of the method: (§1)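 Relative viability divides the nuclei count in treated wells by that in vehicle wells. Lung cancer cell lines were seeded in 1536-well plates, dosed by pin tool the next day, and fixed and stained after 5 days in one step with final 0.05% Triton X-100, 1% formaldehyde and 1 ug/ml Hoechst. Dosing was a single drug or a fixed anchor-drug dose plus five library-drug doses (not always all listed) in √10 steps, and values are medians of duplicate plates imaged at 4×.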

ChaGo-K-1 = test system: ChaGo-K-1
Summary of the method: as §1

HCC-78 = test system: HCC-78
Summary of the method: as §1

LC-2-ad = test system: LC-2-ad
Summary of the method: as §1

LCLC-97TM1 = test system: LCLC-97TM1
Summary of the method: as §1

LK-2 = test system: LK-2
Summary of the method: as §1

LU99A = test system: LU99A
Summary of the method: as §1

LXF-289 = test system: LXF-289
Summary of the method: as §1

NCI-H1355 = test system: NCI-H1355
Summary of the method: as §1

NCI-H1651 = test system: NCI-H1651
Summary of the method: as §1

NCI-H1666 = test system: NCI-H1666
Summary of the method: as §1

NCI-H1944 = test system: NCI-H1944
Summary of the method: as §1

NCI-H1975 = test system: NCI-H1975
Summary of the method: as §1

NCI-H2087 = test system: NCI-H2087
Summary of the method: as §1

NCI-H2342 = test system: NCI-H2342
Summary of the method: as §1

NCI-H358 = test system: NCI-H358
Summary of the method: as §1

NCI-H596 = test system: NCI-H596
Summary of the method: as §1

NCI-H650 = test system: NCI-H650
Summary of the method: as §1

NCI-H838 = test system: NCI-H838
Summary of the method: as §1

PC-3 [JPC-3] = test system: PC-3 [JPC-3]
Summary of the method: as §1

Compound: CCN(CC)CCCCNc1ncc2cc(-c3cc(OC)cc(OC)c3)c(NC(=O)NC(C)(C)C)nc2n1 + NC(=O)Nc1cc(-c2cccc(F)c2)sc1C(=O)N[C@H]1CCCNC1 [AZD7762] (partner 0.2 µM)
- relative viability (BEN; first compound 0.01 µM): 0.669
- relative viability (BEN; first compound 0.03162 µM): 0.61
- relative viability (BEN; first compound 0.1 µM): 0.703
- relative viability (BEN; first compound 0.3162 µM): 0.757
- relative viability (BEN; first compound 1 µM): 0.676
- relative viability (ChaGo-K-1; first compound 0.01 µM): 0.885
- relative viability (ChaGo-K-1; first compound 0.03162 µM): 0.927
- relative viability (ChaGo-K-1; first compound 0.1 µM): 0.956
- relative viability (ChaGo-K-1; first compound 0.3162 µM): 0.878
- relative viability (ChaGo-K-1; first compound 1 µM): 0.853
- relative viability (HCC-78; first compound 0.01 µM): 0.394
- relative viability (HCC-78; first compound 0.03162 µM): 0.647
- relative viability (HCC-78; first compound 0.1 µM): 0.726
- relative viability (HCC-78; first compound 0.3162 µM): 0.745
- relative viability (HCC-78; first compound 1 µM): 0.549
- relative viability (LC-2-ad; first compound 0.01 µM): 0.878
- relative viability (LC-2-ad; first compound 0.03162 µM): 0.798
- relative viability (LC-2-ad; first compound 0.1 µM): 0.92
- relative viability (LC-2-ad; first compound 0.3162 µM): 0.932
- relative viability (LC-2-ad; first compound 1 µM): 0.815
- relative viability (LCLC-97TM1; first compound 0.03162 µM): 0.384
- relative viability (LCLC-97TM1; first compound 0.1 µM): 0.275
- relative viability (LCLC-97TM1; first compound 0.3162 µM): 0.234
- relative viability (LCLC-97TM1; first compound 1 µM): 0.227
- relative viability (LK-2; first compound 0.01 µM): 0.471
- relative viability (LK-2; first compound 0.03162 µM): 0.394
- relative viability (LK-2; first compound 0.1 µM): 0.374
- relative viability (LK-2; first compound 0.3162 µM): 0.276
- relative viability (LK-2; first compound 1 µM): 0.197
- relative viability (LU99A; first compound 0.01 µM): 0.325
- relative viability (LU99A; first compound 0.03162 µM): 0.486
- relative viability (LU99A; first compound 0.1 µM): 0.323
- relative viability (LU99A; first compound 0.3162 µM): 0.35
- relative viability (LU99A; first compound 1 µM): 0.289
- relative viability (LXF-289; first compound 0.01 µM): 1.07
- relative viability (LXF-289; first compound 0.03162 µM): 1.18
- relative viability (LXF-289; first compound 0.1 µM): 1.16
- relative viability (LXF-289; first compound 0.3162 µM): 0.946
- relative viability (LXF-289; first compound 1 µM): 0.956
- relative viability (NCI-H1355; first compound 0.01 µM): 0.809
- relative viability (NCI-H1355; first compound 0.03162 µM): 0.776
- relative viability (NCI-H1355; first compound 0.1 µM): 0.766
- relative viability (NCI-H1355; first compound 0.3162 µM): 0.801
- relative viability (NCI-H1355; first compound 1 µM): 0.515
- relative viability (NCI-H1651; first compound 0.01 µM): 0.444
- relative viability (NCI-H1651; first compound 0.03162 µM): 0.508
- relative viability (NCI-H1651; first compound 0.1 µM): 0.497
- relative viability (NCI-H1651; first compound 0.3162 µM): 0.608
- relative viability (NCI-H1651; first compound 1 µM): 0.397
- relative viability (NCI-H1666; first compound 0.01 µM): 0.836
- relative viability (NCI-H1666; first compound 0.03162 µM): 0.848
- relative viability (NCI-H1666; first compound 0.1 µM): 0.889
- relative viability (NCI-H1666; first compound 0.3162 µM): 1.12
- relative viability (NCI-H1666; first compound 1 µM): 0.727
- relative viability (NCI-H1944; first compound 0.01 µM): 0.474
- relative viability (NCI-H1944; first compound 0.03162 µM): 0.86
- relative viability (NCI-H1944; first compound 0.1 µM): 0.513
- relative viability (NCI-H1944; first compound 0.3162 µM): 0.505
- relative viability (NCI-H1944; first compound 1 µM): 0.494
- relative viability (NCI-H1975; first compound 0.01 µM): 0.684
- relative viability (NCI-H1975; first compound 0.03162 µM): 0.676
- relative viability (NCI-H1975; first compound 0.1 µM): 0.776
- relative viability (NCI-H1975; first compound 0.3162 µM): 0.818
- relative viability (NCI-H1975; first compound 1 µM): 0.601
- relative viability (NCI-H2087; first compound 0.01 µM): 1.21
- relative viability (NCI-H2087; first compound 0.03162 µM): 1.31
- relative viability (NCI-H2087; first compound 0.1 µM): 1.34
- relative viability (NCI-H2087; first compound 0.3162 µM): 1.29
- relative viability (NCI-H2087; first compound 1 µM): 1.18
- relative viability (NCI-H2342; first compound 0.01 µM): 0.44
- relative viability (NCI-H2342; first compound 0.03162 µM): 0.511
- relative viability (NCI-H2342; first compound 0.1 µM): 0.482
- relative viability (NCI-H2342; first compound 0.3162 µM): 0.558
- relative viability (NCI-H2342; first compound 1 µM): 0.485
- relative viability (NCI-H358; first compound 0.01 µM): 0.444
- relative viability (NCI-H358; first compound 0.03162 µM): 0.52
- relative viability (NCI-H358; first compound 0.1 µM): 0.593
- relative viability (NCI-H358; first compound 0.3162 µM): 0.64
- relative viability (NCI-H358; first compound 1 µM): 0.395
- relative viability (NCI-H596; first compound 0.01 µM): 1.11
- relative viability (NCI-H596; first compound 0.03162 µM): 1
- relative viability (NCI-H596; first compound 0.1 µM): 1.06
- relative viability (NCI-H596; first compound 0.3162 µM): 0.979
- relative viability (NCI-H596; first compound 1 µM): 0.801
- relative viability (NCI-H650; first compound 0.01 µM): 0.909
- relative viability (NCI-H650; first compound 0.03162 µM): 0.944
- relative viability (NCI-H650; first compound 0.1 µM): 0.97
- relative viability (NCI-H650; first compound 0.3162 µM): 1.22
- relative viability (NCI-H650; first compound 1 µM): 0.994
- relative viability (NCI-H838; first compound 0.01 µM): 0.734
- relative viability (NCI-H838; first compound 0.03162 µM): 0.956
- relative viability (NCI-H838; first compound 0.1 µM): 0.992
- relative viability (NCI-H838; first compound 0.3162 µM): 1.1
- relative viability (NCI-H838; first compound 1 µM): 0.76
- relative viability (PC-3 [JPC-3]; first compound 0.03162 µM): 0.822
- relative viability (PC-3 [JPC-3]; first compound 0.1 µM): 0.756
- relative viability (PC-3 [JPC-3]; first compound 0.3162 µM): 1.03
- relative viability (PC-3 [JPC-3]; first compound 1 µM): 0.639
